Consider 3 compounds from patent US8053444B2 (Lek Pharmaceuticals d.d., priority 2007, dated 2011).

Data set [1] can be described thus: Stress stability testing in vials, sirolimus impurities by HPLC. The class given is physicochemical. As to conditions: 7 days, 60° C. Also noted: unit not given here.
Assay in data set [2]: as above
Also noted: Total sum of impurities / Max.unknown impurity: unit not given here. The class given is physicochemical. How it is done: The origination of a solid solution of sirolimus was checked by X-ray diffraction analysis and Raman microscopy. […] These were exposed then to stress stability testing at 60° C. for 14 days and at 40° C. and 75% relative humidity for one month in vials. The amount of degradation products formed was compared to the samples of commercially available tablets comprising sirolimus.
The HPLC analyses were performed with a Waters system equipped with a Synergi Max-RP, 5 μm, 250×4.6 mm column which was maintained in a column oven at 40° C. The mobile phase consisted of a 40:54:6 (V/V/V) mixture of CF3COOH/NaOH with pH 2.5, acetonitrile and water. The flow rate was 1.4 mL/min, and the detection wavelength was 278 nm.
For the stability studies, two solid solutions were prepared using ethanol-soluble polymers polyvinylpyrrolidone (PVP) or hydroxypropylcellulose (HPC). The chemical stability was monitored for 14 days at 60° C. and 1 month at 40° C. and 75% relative humidity. The samples were stored in vials.

Data set [3] can be described thus: Solubility of sirolimus in water. To be noted: volume of 250 ml of gastrointestinal fluid.
Setting [4] is: 1 month, 40° C./75% relative humidity, in vials.

On to `CO[C@H]1C[C@@H]2CC[C@@H](C)[C@@](O)(O2)C(=O)C(=O)N2CCCC[C@H]2C(=O)O[C@H]([C@H](C)C[C@@H]2CC[C@@H](O)[C@H](OC)C2)CC(=O)[C@H](C)/C=C(\C)[C@@H](O)[C@@H](OC)C(=O)[C@H](C)C[C@H](C)/C=C/C=C/C=C/1C` [Example 1, sirolimus], for which, in data set [1], the Max.unknown impurity came to 1.91 and the “Total sum of impurities” value was 9.09. In addition, in data set [2] (stress stability testing, comparison between samples of Table 3), the “chemical stability of sirolimus, comparison in words” value is listed as “significantly less stable”. Besides, in data set [2] (time of testing 0), the Max.unknown impurity is recorded as 0.25 and the “Total sum of impurities” value is 3.34.
In the case of `CO[C@H]1C[C@@H]2CC[C@@H](C)[C@@](O)(O2)C(=O)C(=O)N2CCCC[C@H]2C(=O)O[C@H]([C@H](C)C[C@@H]2CC[C@@H](O)[C@H](OC)C2)CC(=O)[C@H](C)/C=C(\C)[C@@H](O)[C@@H](OC)C(=O)[C@H](C)C[C@H](C)/C=C/C=C/C=C/1C` [Sirolimus, (3S,6R,7E,9R,10R,12R,14S,15E,17E,19E,21S,23S,26R,27R,34aS)-9,10,12,13, -14,21,22,23,24,25,26,27,32,33,34,34a-hexadecahydro-9,27-dihydroxy-3-[(1R)-2-[(1S,3R,4R)-4-hydroxy-3-methoxycyclohexyl]-1-methylethyl]-10,21-dimethox-y-6,8,12,14,20,26-hexamethyl-23,27-epoxy-3H-pyrido[2,1-c][1,4]oxaazacycloh-entriacontine-1,5,11,28,29(4H,6H,31H)-pentone], the “amount of sirolimus dissolved in gastrointestinal fluid” value in data set [3] was “about 0.65 mg”.
On to `CO[C@H]1C[C@@H]2CC[C@@H](C)[C@@](O)(O2)C(=O)C(=O)N2CCCC[C@H]2C(=O)O[C@H]([C@H](C)C[C@@H]2CC[C@@H](O)[C@H](OC)C2)CC(=O)[C@H](C)/C=C(\C)[C@@H](O)[C@@H](OC)C(=O)[C@H](C)C[C@H](C)/C=C/C=C/C=C/1C` [Substance in a crystal form, sirolimus], for which the Max.unknown impurity is 0.26 in data set [2] (setting [4]); 0.26 in data set [2] (14 days, 60° C., in vials); 0.19 in data set [2] (time of testing 0). Besides, the “Total sum of impurities” value in data set [2] (setting [4]) is recorded as 0.59; in data set [2] (14 days, 60° C., in vials), 0.60; in data set [2] (time of testing 0), 0.70.
